From patent US7183260B2, “C-terminal modified oxamyl dipeptides as inhibitors of the ICE/ced-3 family of cysteine proteases” (Idun Pharmaceuticals, Inc., priority 1998, dated 2007)

Assays:
Assay type in all cases: biochemical
Conditions in all cases: continuous assay 60 min, reaction initiated by adding enzyme to substrate-inhibitor mixture
mICE = target: T1, mICE (Mus musculus, UniProt P29452); experiment: Dissociation constant Ki and irreversible rate constant k3 for irreversible inhibitors (ICE)
T1 sequence (P29452 123-296 limits assumed): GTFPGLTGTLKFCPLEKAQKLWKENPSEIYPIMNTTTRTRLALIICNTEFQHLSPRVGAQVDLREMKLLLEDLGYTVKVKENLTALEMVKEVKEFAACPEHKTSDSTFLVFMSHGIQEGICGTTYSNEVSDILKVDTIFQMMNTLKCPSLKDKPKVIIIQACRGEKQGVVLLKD
T1 sequence (P29452 315-402 limits assumed): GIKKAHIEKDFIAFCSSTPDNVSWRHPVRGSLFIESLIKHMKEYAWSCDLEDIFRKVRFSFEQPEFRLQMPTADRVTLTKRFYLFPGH

MCH-5 = MCH-5 (Homo sapiens, UniProt Q14790); experiment: Dissociation constant Ki and irreversible rate constant k3 for irreversible inhibitors (Mch5)
Chain of MCH-5 (Q14790 217-374 limits assumed, species assumed): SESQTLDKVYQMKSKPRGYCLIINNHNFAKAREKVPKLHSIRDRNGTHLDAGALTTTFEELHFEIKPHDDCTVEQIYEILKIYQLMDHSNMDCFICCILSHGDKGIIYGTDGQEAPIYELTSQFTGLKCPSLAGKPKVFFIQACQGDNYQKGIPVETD
Chain of MCH-5 (Q14790 385-479 limits assumed, species assumed): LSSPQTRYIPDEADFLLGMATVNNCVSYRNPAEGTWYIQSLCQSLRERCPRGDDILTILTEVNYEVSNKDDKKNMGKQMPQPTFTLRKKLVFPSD

CPP32 = target: T2, CPP32 (Homo sapiens, UniProt P42574); experiment: Dissociation constant Ki and irreversible rate constant k3 for irreversible inhibitors (CPP32)
T2 sequence (P42574 29-175 limits assumed): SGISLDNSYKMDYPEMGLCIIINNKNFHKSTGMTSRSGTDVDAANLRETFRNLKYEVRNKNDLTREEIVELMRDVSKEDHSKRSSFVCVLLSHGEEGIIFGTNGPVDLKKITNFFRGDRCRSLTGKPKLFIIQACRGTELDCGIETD
T2 sequence (P42574 176-277 limits assumed): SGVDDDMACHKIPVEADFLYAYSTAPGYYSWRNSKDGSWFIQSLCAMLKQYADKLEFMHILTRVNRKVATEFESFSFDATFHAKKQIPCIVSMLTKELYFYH

MCH-2 = target: T3, MCH-2 (Homo sapiens, UniProt P55212); experiment: Dissociation constant Ki and irreversible rate constant k3 for irreversible inhibitors (Mch2)
T3 sequence (P55212 24-179 limits assumed): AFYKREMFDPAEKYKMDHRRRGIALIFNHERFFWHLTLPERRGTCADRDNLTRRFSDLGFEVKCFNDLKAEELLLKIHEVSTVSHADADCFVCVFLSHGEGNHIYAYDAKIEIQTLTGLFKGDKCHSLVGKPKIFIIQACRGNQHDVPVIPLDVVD
T3 sequence (P55212 194-293 limits assumed): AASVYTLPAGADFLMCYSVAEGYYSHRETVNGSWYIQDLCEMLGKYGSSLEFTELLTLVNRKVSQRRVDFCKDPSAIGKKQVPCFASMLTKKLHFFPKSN

For CC(C)[C@H](NC(=O)C(=O)Nc1ccccc1C(F)(F)F)C(=O)N[C@@H](CC(=O)O)C(=O)COc1c(F)c(F)cc(F)c1F [Example 92], the Ki (mICE) was 11 nM, the “mICE k3/Ki” value (mICE) was 1,044,000 moles^−1 seconds^−1 and the Ki (MCH-5) was 6 nM. For the same molecule, the “MCH-5 k3/Ki” value (MCH-5) was 41,000 moles^−1 seconds^−1, the “CPP32 k3/Ki” value (CPP32) was 57,400 moles^−1 seconds^−1 and the Ki (CPP32) was 175 nM. The Ki (MCH-2) was 12 nM and the “MCH-2 k3/Ki” value (MCH-2) was 261,000 moles^−1 seconds^−1.
C[C@H](NC(=O)C(=O)NCc1cccc2ccccc12)C(=O)N[C@@H](CC(=O)O)C(=O)COC(=O)c1c(Cl)cccc1Cl [Example 34] was tested, and the Ki (mICE) was 9.9 nM, the “mICE k3/Ki” value (mICE) was 1,160,000 moles^−1 seconds^−1 and the Ki (MCH-5) was 4.2 nM. For the same molecule, the “MCH-5 k3/Ki” value (MCH-5) was 936,000 moles^−1 seconds^−1, the “CPP32 k3/Ki” value (CPP32) was 187,000 moles^−1 seconds^−1 and the Ki (CPP32) was 43 nM. The Ki (MCH-2) was 11 nM and the “MCH-2 k3/Ki” value (MCH-2) was 214,000 moles^−1 seconds^−1.
For COC(=O)c1cc(OCC(=O)[C@H](CC(=O)O)NC(=O)[C@@H](NC(=O)C(=O)Nc2cccc3ccccc23)C(C)C)no1 [Example 13], the Ki (mICE) was 24 nM, the Ki (MCH-5) was 23 nM and the Ki (CPP32) was 67 nM. It also gave a Ki (MCH-2) of 96 nM.
C[C@H](NC(=O)C(=O)Nc1ccc(F)cc1)C(=O)N[C@@H](CC(=O)O)C(=O)COC(=O)c1c(Cl)cccc1Cl [Example 44] was tested, and the Ki (mICE) was 1450 nM, the “mICE k3/Ki” value (mICE) was 11,700 moles^−1 seconds^−1 and the Ki (MCH-5) was 462 nM. For the same molecule, the “MCH-5 k3/Ki” value (MCH-5) was 18,700 moles^−1 seconds^−1, the “CPP32 k3/Ki” value (CPP32) was 22,700 moles^−1 seconds^−1 and the Ki (CPP32) was 1280 nM. The Ki (MCH-2) was 142 nM and the “MCH-2 k3/Ki” value (MCH-2) was 18,600 moles^−1 seconds^−1.
For C[C@H](NC(=O)C(=O)Nc1ccccc1Cl)C(=O)N[C@@H](CC(=O)O)C(=O)COP(=O)(c1ccccc1)c1ccccc1 [Example 57], the Ki (mICE) was 5.3 nM, the “mICE k3/Ki” value (mICE) was 1,980,000 moles^−1 seconds^−1 and the Ki (MCH-5) was 2.1 nM. The “MCH-5 k3/Ki” value (MCH-5) was 2,330,000 moles^−1 seconds^−1, the “CPP32 k3/Ki” value (CPP32) was 564,000 moles^−1 seconds^−1 and the Ki (CPP32) was 44 nM. The Ki (MCH-2) was 13 nM and the “MCH-2 k3/Ki” value (MCH-2) was 373,000 moles^−1 seconds^−1.
With CC(C)[C@H](NC(=O)C(=O)Nc1c(F)cccc1F)C(=O)N[C@@H](CC(=O)O)C(=O)COc1c(F)c(F)cc(F)c1F [Example 108] the Ki (mICE) was 4.8 nM, the “mICE k3/Ki” value (mICE) was 2,680,000 moles^−1 seconds^−1 and the Ki (MCH-5) was 1.9 nM. The “MCH-5 k3/Ki” value (MCH-5) was 1,830,000 moles^−1 seconds^−1, the “CPP32 k3/Ki” value (CPP32) was 62,900 moles^−1 seconds^−1 and the Ki (CPP32) was 102 nM. The Ki (MCH-2) was 8 nM and the “MCH-2 k3/Ki” value (MCH-2) was 1,083,000 moles^−1 seconds^−1.
With C[C@H](NC(=O)C(=O)Nc1cccc2c1CCCC2)C(=O)N[C@@H](CC(=O)O)C(=O)COP(=O)(c1ccccc1)c1ccccc1 [Example 61] the Ki (mICE) was 23 nM, the “mICE k3/Ki” value (mICE) was 315,000 moles^−1 seconds^−1 and the Ki (MCH-5) was 38 nM. For the same molecule, the “MCH-5 k3/Ki” value (MCH-5) was 71,800 moles^−1 seconds^−1, the “CPP32 k3/Ki” value (CPP32) was 157,000 moles^−1 seconds^−1 and the Ki (CPP32) was 69 nM. For the same molecule, the Ki (MCH-2) was 19 nM and the “MCH-2 k3/Ki” value (MCH-2) was 120,000 moles^−1 seconds^−1.
Cc1cc(OCC(=O)[C@H](CC(=O)O)NC(=O)[C@@H](NC(=O)C(=O)Nc2cccc3ccccc23)C(C)C)cc(=O)o1 [Example 8] was tested, and the Ki (MCH-5) was 29 nM, the Ki (CPP32) was 26 nM and the Ki (MCH-2) was 254 nM.
With C[C@H](NC(=O)C(=O)Nc1ccccc1Cl)C(=O)N[C@@H](CC(=O)O)C(=O)COP(=O)(c1ccccc1)c1ccccc1 [Example 41] the Ki (mICE) was 140 nM, the “mICE k3/Ki” value (mICE) was 103,000 moles^−1 seconds^−1 and the Ki (MCH-5) was 27 nM. For the same molecule, the “MCH-5 k3/Ki” value (MCH-5) was 179,000 moles^−1 seconds^−1, the “CPP32 k3/Ki” value (CPP32) was 162,000 moles^−1 seconds^−1 and the Ki (CPP32) was 35 nM. For the same molecule, the Ki (MCH-2) was 11 nM and the “MCH-2 k3/Ki” value (MCH-2) was 247,000 moles^−1 seconds^−1.
Work on C/C=C/OC(=O)Oc1ccc(OCC(=O)[C@H](CC(=O)O)NC(=O)[C@@H](NC(=O)C(=O)Nc2cccc3ccccc23)C(C)C)cc1 [Example 16] yielded a Ki (mICE) of 9.5 nM and a Ki (MCH-2) of 43 nM.
